# Assay results: patent US11590139B2, “Substituted aminopurine compounds, compositions thereof, and methods of treatment therewith” (Signal Pharmaceuticals, LLC, priority 2014, dated 2023)
# Test system: Lox-IMVI melanoma cell line
# Assay: Lox-IMVI anti-proliferative assay (growth inhibition, Cell Titer-Glo)
# Format: cell-based, human
# Settings: Homo sapiens; IC50 activity level in the cell-based Lox-IMVI anti-proliferative assay; read-out: Activity
# How it was run: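 Cells grown in RPMI + 10% FBS were exposed to compound at 0.5 nM to 10 μM (10-point, 3-fold dilution, duplicate, 0.2% DMSO final) for 72 h at 37 °C, 5% CO2. Viability was read by ATP luminescence at t0 and 72 h. IC50 came from a four-parameter logistic fit normalized to DMSO control.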
row,Structure (SMILES),IC50
1,"C[C@@H]1CC[C@@H](Nc2ncc3nc(Nc4c(Cl)cc(F)cc4Cl)n([C@H]4CC[C@@H](C(N)=O)CC4)c3n2)C[C@H]1O [Example 355, (1S,4s)-4-(8-(2,6-dichloro-4-fluorophenylamino)-2-((1R,3R,4R)-3-hydroxy-4-methylcyclohexylamino)-9H-purin-9-yl)cyclohexanecarboxamide]",> 1 µM
2,"C[C@@H]1CC[C@@H](Nc2ncc3nc(Nc4c(F)cc(Cl)cc4F)n([C@H]4CC[C@@H](C(N)=O)CC4)c3n2)C[C@H]1O [Example 356, (1S,4s)-4-(8-(4-chloro-2,6-difluorophenylamino)-2-((1R,3R,4R)-3-hydroxy-4-methylcyclohexylamino)-9H-purin-9-yl)cyclohexanecarboxamide]",> 1 µM
3,"C[C@@H]1CC[C@@H](Nc2ncc3nc(Nc4ccc(Cl)c(F)c4F)n([C@H]4CC[C@@H](C(N)=O)CC4)c3n2)C[C@H]1O [Example 357, (1S,4s)-4-(8-(4-chloro-2,3-difluorophenylamino)-2-((1R,3R,4R)-3-hydroxy-4-methylcyclohexylamino)-9H-purin-9-yl)cyclohexanecarboxamide]",> 1 µM
4,"C[C@@H]1CC[C@@H](Nc2ncc3nc(Nc4c(F)ccc(Cl)c4F)n([C@H]4CC[C@@H](C(N)=O)CC4)c3n2)C[C@H]1O [Example 358, (1S,4s)-4-(8-(3-chloro-2,6-difluorophenylamino)-2-((1R,3R,4R)-3-hydroxy-4-methylcyclohexylamino)-9H-purin-9-yl)cyclohexanecarboxamide]",> 1 µM
5,"C[C@@H]1CC[C@@H](Nc2ncc3nc(Nc4c(F)ccc(F)c4F)n([C@H]4CC[C@@H](C(N)=O)CC4)c3n2)C[C@H]1O [Example 359, (1S,4s)-4-(2-((1R,3R,4R)-3-hydroxy-4-methylcyclohexylamino)-8-(2,3,6-trifluorophenylamino)-9H-purin-9-yl)cyclohexanecarboxamide]",> 1 µM
6,"NC(=O)[C@H]1CC[C@@H](n2c(Nc3ccc(Cl)c(F)c3F)nc3cnc(N[C@@H]4CCC[C@H](O)C4)nc32)CC1 [Example 360, (1S,4s)-4-(8-(4-chloro-2,3-difluorophenylamino)-2-((1R,3S)-3-hydroxycyclohexylamino)-9H-purin-9-yl)cyclohexanecarboxamide]",> 1 µM
7,"NC(=O)[C@H]1CC[C@@H](n2c(Nc3c(F)cc(Cl)cc3Cl)nc3cnc(N[C@@H]4CCC[C@H](O)C4)nc32)CC1 [Example 361, (1S,4s)-4-(8-(2,4-dichloro-6-fluorophenylamino)-2-((1R,3S)-3-hydroxycyclohexylamino)-9H-purin-9-yl)cyclohexanecarboxamide]",< 0.25 µM
8,"NC(=O)[C@H]1CC[C@@H](n2c(Nc3c(F)ccc(Cl)c3F)nc3cnc(N[C@@H]4CCC[C@H](O)C4)nc32)CC1 [Example 362, (1S,4s)-4-(8-(3-chloro-2,6-difluorophenylamino)-2-((1R,3S)-3-hydroxycyclohexylamino)-9H-purin-9-yl)cyclohexanecarboxamide]",> 1 µM
9,"NC(=O)[C@H]1CC[C@@H](n2c(Nc3cc(F)c(Cl)cc3F)nc3cnc(N[C@@H]4CCC[C@H](O)C4)nc32)CC1 [Example 363, (1S,4s)-4-(8-(4-chloro-2,5-difluorophenylamino)-2-((1R,3S)-3-hydroxycyclohexylamino)-9H-purin-9-yl)cyclohexanecarboxamide]",> 1 µM
10,"NC(=O)[C@H]1CC[C@@H](n2c(Nc3ccc(F)c(F)c3F)nc3cnc(N[C@@H]4CCC[C@H](O)C4)nc32)CC1 [Example 364, (1S,4s)-4-(2-((1R,3S)-3-hydroxycyclohexylamino)-8-(2,3,4-trifluorophenylamino)-9H-purin-9-yl)cyclohexanecarboxamide]",> 1 µM
11,"NC(=O)[C@H]1CC[C@@H](n2c(Nc3c(Cl)cc(OC(F)(F)F)cc3Cl)nc3cnc(NC4CCOCC4)nc32)CC1 [Example 365, (1s,4s)-4-(8-(2,6-dichloro-4-(trifluoromethoxy)phenylamino)-2-(tetrahydro-2H-pyran-4-ylamino)-9H-purin-9-yl)cyclohexanecarboxamide]",< 0.25 µM
12,"C[C@@H](CO)Nc1ncc2nc(Nc3c(Cl)cc(C#N)cc3Cl)n([C@H]3CC[C@@H](C(N)=O)CC3)c2n1 [Example 366, (1R,4s)-4-(8-(2,6-dichloro-4-cyanophenylamino)-2-((S)-1-hydroxypropan-2-ylamino)-9H-purin-9-yl)cyclohexanecarboxamide]",< 0.25 µM
13,"N#Cc1cc(Cl)c(Nc2nc3cnc(NC4CCCC4)nc3n2[C@H]2CC[C@@H](C(N)=O)CC2)c(Cl)c1 [Example 367, (1s,4s)-4-(2-(cyclopentylamino)-8-(2,6-dichloro-4-cyanophenylamino)-9H-purin-9-yl)cyclohexanecarboxamide]",< 0.25 µM
14,"N#Cc1cc(F)c(Nc2nc3cnc(NC4CCC4)nc3n2[C@H]2CC[C@@H](C(N)=O)CC2)c(F)c1 [Example 368, (1s,4s)-4-(8-(4-cyano-2,6-difluorophenylamino)-2-(cyclobutylamino)-9H-purin-9-yl)cyclohexanecarboxamide]",0.5 to 1 µM
15,"N#Cc1cc(F)c(Nc2nc3cnc(NC4CCCC4)nc3n2[C@H]2CC[C@@H](C(N)=O)CC2)c(Cl)c1 [Example 369, (1s,4s)-4-(8-(2-chloro-4-cyano-6-fluorophenylamino)-2-(cyclopentylamino)-9H-purin-9-yl)cyclohexanecarboxamide]",0.25 to 0.5 µM
16,"NC(=O)[C@H]1CC[C@@H](n2c(Nc3c(Cl)cccc3Cl)nc3cnc(N[C@H]4CCC[C@@H](O)C4)nc32)CC1 [Example 370, (1R,4s)-4-(8-(2,6-dichlorophenylamino)-2-((1S,3R)-3-hydroxycyclohexylamino)-9H-purin-9-yl)cyclohexanecarboxamide]",> 1 µM
17,"NC(=O)[C@H]1CC[C@@H](n2c(Nc3c(F)cc(F)cc3Cl)nc3cnc(N[C@H]4CCC[C@@H](O)C4)nc32)CC1 [Example 371, (1R,4s)-4-(8-(2-chloro-4,6-difluorophenylamino)-2-((1S,3R)-3-hydroxycyclohexylamino)-9H-purin-9-yl)cyclohexanecarboxamide]",> 1 µM
18,"NC(=O)[C@H]1CC[C@@H](n2c(Nc3c(F)cc(Cl)cc3F)nc3cnc(N[C@H]4CCC[C@@H](O)C4)nc32)CC1 [Example 372, (1R,4s)-4-(8-(4-chloro-2,6-difluorophenylamino)-2-((1S,3R)-3-hydroxycyclohexylamino)-9H-purin-9-yl)cyclohexanecarboxamide]",> 1 µM
19,"NC(=O)[C@H]1CC[C@@H](n2c(Nc3c(Cl)cc(Cl)cc3Cl)nc3cnc(N[C@H]4CCC[C@@H](O)C4)nc32)CC1 [Example 373, (1R,4s)-4-(2-((1S,3R)-3-hydroxycyclohexylamino)-8-(2,4,6-trichlorophenylamino)-9H-purin-9-yl)cyclohexanecarboxamide]",0.5 to 1 µM
20,"NC(=O)[C@H]1CC[C@@H](n2c(Nc3c(Cl)cc(F)cc3Cl)nc3cnc(N[C@H]4CCC[C@@H](O)C4)nc32)CC1 [Example 374, (1R,4s)-4-(8-(2,6-dichloro-4-fluorophenylamino)-2-((1S,3R)-3-hydroxycyclohexylamino)-9H-purin-9-yl)cyclohexanecarboxamide]",> 1 µM
21,"NC(=O)[C@H]1CC[C@@H](n2c(Nc3ccc(Cl)c(F)c3F)nc3cnc(N[C@H]4CCC[C@@H](O)C4)nc32)CC1 [Example 375, (1R,4s)-4-(8-(4-chloro-2,3-difluorophenylamino)-2-((1S,3R)-3-hydroxycyclohexylamino)-9H-purin-9-yl)cyclohexanecarboxamide]",> 1 µM
